From patent US20140113888A1, “Novel Combination of Therapeutic Agents” (Glaxo Group Limited, priority 2011, published 2014)

Tests used:
[1] = 8 week randomised, double-blind, placebo-controlled study in persistent uncontrolled asthma; type: in vivo, human
Description: In one such study, the safety and efficacy of four doses of fluticasone furoate in subjects with persistent uncontrolled asthma were evaluated. In this study, which was a randomised, double-blind, placebo-controlled, parallel group study, 598 patients received one of six treatments: fluticasone furoate (25, 50, 100 or 200 mcg) once daily, fluticasone propionate 100 mcg twice daily or placebo for 8 weeks. The primary endpoint was change from baseline in trough (pre-dose) forced expiratory volume in 1 second (FEV1) at Week 8. […] This study supports the use of fluticasone furoate (100 or 200 mcg once-daily) for the treatment of persistant uncontrolled asthma.

[2] = clinical studies of fluticasone furoate (general statement); type: in vivo, human
human M3 receptor = human M3 receptor (Homo sapiens, UniProt P20309); assay: reversibility at the human M3 receptor in vitro; type: binding
human M3 receptor, sequence (P20309 whole entry): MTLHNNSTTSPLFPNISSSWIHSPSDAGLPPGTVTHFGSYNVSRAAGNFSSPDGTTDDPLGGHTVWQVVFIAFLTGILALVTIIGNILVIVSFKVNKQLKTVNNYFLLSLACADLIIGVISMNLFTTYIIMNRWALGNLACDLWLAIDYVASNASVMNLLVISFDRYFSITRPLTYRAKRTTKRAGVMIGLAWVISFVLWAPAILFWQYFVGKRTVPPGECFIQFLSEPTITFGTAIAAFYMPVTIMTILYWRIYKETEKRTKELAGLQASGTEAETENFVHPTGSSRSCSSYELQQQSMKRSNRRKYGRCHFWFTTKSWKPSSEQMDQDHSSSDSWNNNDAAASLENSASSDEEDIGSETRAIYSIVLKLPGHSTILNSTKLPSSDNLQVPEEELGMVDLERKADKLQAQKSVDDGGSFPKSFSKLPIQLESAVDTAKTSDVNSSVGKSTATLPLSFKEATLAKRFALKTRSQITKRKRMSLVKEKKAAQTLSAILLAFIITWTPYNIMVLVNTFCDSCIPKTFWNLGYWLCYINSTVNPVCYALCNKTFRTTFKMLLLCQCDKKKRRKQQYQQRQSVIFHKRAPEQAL

[3] = duration of action in vivo, administered directly to the lungs in pre-clinical models
[4] = clinical pharmacology studies, single inhaled doses, plethysmography (sGaw, Raw) and spirometry (FEV1); type: in vivo, human; conditions: healthy volunteers and COPD patients
Description: Several clinical pharmacology studies have been conducted using umeclidinium bromide in both healthy volunteers and COPD patients to investigate the safety, tolerability, pharmacokinetics and pharmacodynamics of this compound. The bronchodilatory effects and duration of action of single inhaled doses of this compound as measured by plethysmography (sGaw, Raw) and spirometry (FEV1) were assessed in some of the above noted studies.

[5] = 14-day once-daily study in subjects with COPD; type: in vivo, human; conditions: 14 days
Description: In addition, this study confirmed that umeclidinium bromide has a once-daily profile.

[6] = 28 day once-daily dry powder inhaler study in subjects with COPD; type: in vivo, human; conditions: 125, 250 and 500 mcg once-daily, 28 days
Description: A further study evaluated the efficacy and safety of three doses (125 mcg, 250 mcg and 500 mcg) of umeclidinium bromide administered once-daily via a dry powder inhaler over a 28 day period in subjects with COPD.

muscarinic receptor = assay: studies in animal models and in humans: muscarinic receptor antagonism

Structure (SMILES) | change from baseline in trough FEV1 at Week 8 relative to placebo ([1]; 50-200 mcg once daily, p<0.05) | increase in trough FEV1 at Week 8 ([1]; 100 mcg once daily) [mL] | increase in trough FEV1 at Week 8 ([1]; 200 mcg once daily) [mL] | tolerability ([2]; clinical studies) | activity after dosing ([2]; inhaled) | reversibility at the human M3 receptor (human M3 receptor) | duration of action in vivo [3] | bronchodilatory effects (sGaw, Raw, FEV1) [4] | duration of action [4] [h] | pulmonary function compared to placebo ([5]; 62.5, 125, 250, 500 and 1000 mcg once-daily) | trough FEV1 versus open label tiotropium active control (18 mcg once-daily) ([5]; all once-daily doses 62.5-1000 mcg) | bronchodilation [6] | safety [6] | muscarinic receptor antagonist profile (muscarinic receptor)
C[C@@H]1C[C@H]2[C@@H]3C[C@H](F)C4=CC(=O)C=C[C@]4(C)[C@@]3(F)[C@@H](O)C[C@]2(C)[C@@]1(OC(=O)c1ccco1)C(=O)SCF [fluticasone furoate, 6α,9α-difluoro-17α-[(2-furanylcarbonyl)oxy]-11β-hydroxy-16α-methyl-3-oxo-androsta-1,4-diene-17β-carbothioic acid S-fluoromethyl ester] | significantly greater increases | > 200 | > 200 | well-tolerated | still active 24 hours after dosing | – | – | – | – | – | – | – | – | –
OC(c1ccccc1)(c1ccccc1)C12CC[N+](CCOCc3ccccc3)(CC1)CC2.[Br-] [umeclidinium bromide, 4-[hydroxy(diphenyl)methyl]-1-{2-[(phenylmethyl)oxy]ethyl}-1-azoniabicyclo[2.2.2]octane bromide] | – | – | – | – | – | slow reversibility | long duration of action | clinically relevant bronchodilation | 24 | statistically significant improvements | numerically greater improvement | significant bronchodilation over twenty four hours | safe | long acting high-affinity pan-active muscarinic receptor antagonist
